Data on 43 molecules can be found in ChEMBL document CHEMBL3392952, “Structure guided lead generation for M. tuberculosis thymidylate kinase (Mtb TMK): discovery of 3-cyanopyridone and 1,6-naphthyridin-2-one as potent inhibitors” (J Med Chem, 2015).

In one series the target is T1, Thymidylate kinase (Mycobacterium tuberculosis, UniProt P9WKE1).
T1 sequence (P9WKE1 whole entry): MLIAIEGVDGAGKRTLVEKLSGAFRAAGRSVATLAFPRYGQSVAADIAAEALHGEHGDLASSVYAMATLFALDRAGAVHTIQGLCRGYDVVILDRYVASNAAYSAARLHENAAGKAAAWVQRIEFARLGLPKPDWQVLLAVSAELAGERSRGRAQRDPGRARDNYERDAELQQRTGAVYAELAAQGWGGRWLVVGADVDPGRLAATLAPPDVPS
In words: Inhibition of Mycobacterium tuberculosis thymidylate kinase activity by pyruvate kinase-lactate dehydrogenase coupled assay.

Series [1] has as its system Mycobacterium tuberculosis. Briefly: Antitubercular activity against Mycobacterium tuberculosis assessed as growth inhibition […] by standard microdilution method. The series is classed as functional. A general note: Dilution methods test growth across graded concentrations, often in twofold steps.
Series [2] can be described thus: Dissociation constant, pKa of the compound. The series is classed as physicochemical.
For series [3], the target named is T2, Thymidylate kinase (Homo sapiens) (UniProt P23919).
T2 sequence (whole entry): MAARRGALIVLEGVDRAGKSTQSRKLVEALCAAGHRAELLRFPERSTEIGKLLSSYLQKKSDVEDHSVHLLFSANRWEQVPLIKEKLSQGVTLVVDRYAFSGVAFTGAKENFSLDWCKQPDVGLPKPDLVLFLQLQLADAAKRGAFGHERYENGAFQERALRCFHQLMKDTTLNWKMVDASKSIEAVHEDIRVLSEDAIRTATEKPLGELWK
Briefly: Inhibition of human thymidylate kinase assessed as […] up to 200 uM.

The subject of another series is Staphylococcus aureus. Briefly: Inhibition of Staphylococcus aureus thymidylate kinase.
The next series deals with Haemophilus influenzae. In words: Inhibition of Haemophilus influenza thymidylate kinase.
A further series relates to Escherichia coli. In words: Inhibition of Escherichia coli thymidylate kinase.

Converted amounts (≈) assume the structure as drawn. The source made the active and inactive calls. No cut-off for these calls is given here.

The term IC50 denotes the concentration that gives 50% inhibition. High values mean a need for much substance, low ones inhibition by little substance. One may read the MIC as the least concentration at which growth counts as inhibited. On Thymidylate kinase, `CCc1cc2[nH]c(=O)c(C#N)c(-c3ccc(NS(C)(=O)=O)cc3)c2c(C)n1` gave a half-inhibitory concentration (IC50) of 200 nM. In series [1], the minimum inhibitory concentration (MIC) was over 32 µg/mL. As for `COc1ccccc1-c1cc(SC)c(C#N)c(=O)[nH]1`, on Thymidylate kinase, the half-inhibitory concentration (IC50) is over 50000 nM. On to `N#Cc1c(-c2ccc(C(=O)O)cc2)c2c([nH]c1=O)-c1ccccc1CC2`, for which the 50% inhibitory concentration (IC50) on Thymidylate kinase worked out at 6 nM. In the case of `CS(=O)(=O)c1cc(-c2cccc(Br)c2)[nH]c(=O)c1C#N`, half-maximal inhibition against Thymidylate kinase (IC50) was put at 100 nM. Further, the minimal inhibitory concentration (MIC) in series [1] was 8 µg/mL (≈ 22.7 µM). `CCc1cc2[nH]c(=O)c(C)c(C)c2c(CC)n1`: half-maximal inhibition at Thymidylate kinase (IC50) was put at 133000 nM. Broadly, the pKa is the pH at which an ionisable group is half protonated. Read a low pKa as a stronger acid or weaker base. On to `N#Cc1c(-c2ccc(C(=O)NS(=O)(=O)c3ccccc3)cc2)c2c([nH]c1=O)-c1ccccc1OC2`, for which the pKa in series [2] came out at 5. Further, the IC50 on Thymidylate kinase turned out to be 2 nM. For the same molecule, the minimum inhibitory concentration (MIC) in series [1] is over 32 µg/mL.

With `CSc1cc(-c2cccc(Cl)c2)[nH]c(=O)c1C#N`, inhibition against Thymidylate kinase was half-maximal at 1900 nM (IC50).

In series [2], `N#Cc1c(-c2ccc(C(=O)O)cc2)c2c([nH]c1=O)-c1cccc(-c3cn[nH]c3)c1CC2` came in with a pKa of 4.4. Besides, the IC50 at Thymidylate kinase came to 2 nM. The MIC in series [1] is over 32 µg/mL. In turn, `CS(=O)(=O)c1cc(-c2cccc(Br)c2)[nH]c(=O)c1` returned an IC50 against Thymidylate kinase of over 25000 nM. The MIC in series [1] was over 32 µg/mL. On to `COc1cccc(-c2cc(-c3cccc(N)c3)c(C#N)c(=O)[nH]2)c1`, for which the IC50 against Thymidylate kinase is 1200 nM. Regarding `CCc1cc2[nH]c(=O)c(C#N)c(-c3ccccc3)c2c(C)n1`, the IC50 at Thymidylate kinase turned out to be 350 nM. In series [1], the MIC is over 32 µg/mL.

As for `COc1cccc(-c2cc(-c3cccnc3)c(C#N)c(=O)[nH]2)c1`, 2630 nM corresponded to half-maximal inhibition on Thymidylate kinase (IC50). With `COc1cccc(-c2cc(SC)c(C#N)c(=O)[nH]2)c1`, the result in series [3] was inactive. Also, the IC50 against Thymidylate kinase was found to be 1500 nM. In the case of `CS(=O)(=O)NC(=O)c1ccc(-c2c3c([nH]c(=O)c2C#N)-c2ccccc2OC3)cc1`, in series [3], the outcome was inactive. The same molecule gave a pKa in series [2] of 3.9. Half-maximal inhibition against Thymidylate kinase (IC50) was put at 5 nM. In addition, the minimum inhibitory concentration (MIC) in series [1] was over 32 µg/mL. With `CCCc1cc2[nH]c(=O)ccc2c(C)n1`, at Thymidylate kinase, the half-maximal inhibitory concentration (IC50) came out at 590000 nM. Take `N#Cc1c(-c2ccc(C(=O)O)cc2)c2c([nH]c1=O)-c1cccc(O)c1CC2`: the outcome in series [3] was inactive. Moreover, the pKa in series [2] was 4.4. This molecule also came in with a half-inhibitory concentration (IC50) on Thymidylate kinase of 3 nM. For the same molecule, the minimum inhibitory concentration (MIC) in series [1] was over 32 µg/mL. As for `COc1cccc(-c2cc(-c3cccc(C(=O)O)c3)c(C#N)c(=O)[nH]2)c1`, half-maximal inhibition at Thymidylate kinase (IC50) required 2730 nM. On Thymidylate kinase, `C[S+]([O-])c1cc(-c2cccc(Br)c2)[nH]c(=O)c1C#N` (stereo not given) displayed a half-maximal inhibitory concentration (IC50) of 140 nM. Further, the outcome with Staphylococcus aureus, with Haemophilus influenzae and in the series on Escherichia coli was inactive. The minimal inhibitory concentration (MIC) in series [1] was determined as 4 µg/mL (≈ 11.9 µM). Consider `CCCc1cc2[nH]c(=O)c(C#N)c(-c3ccc(NS(C)(=O)=O)cc3)c2c(C)n1`, for which, at Thymidylate kinase, the half-inhibitory concentration (IC50) is 2100 nM. Moreover, the MIC in series [1] is over 32 µg/mL.

Molecule `CS(=O)(=O)c1c2c([nH]c(=O)c1C#N)-c1ccccc1OC2` had an IC50 against Thymidylate kinase of 30000 nM. Further, the MIC in series [1] was found to be 32 µg/mL (≈ 106 µM).

In turn, `CCNC(=O)Nc1ccc(-c2c3c([nH]c(=O)c2C#N)-c2cccc(OC)c2CC3)cc1` gave an IC50 on Thymidylate kinase of 17 nM. Moreover, the minimum inhibitory concentration (MIC) in series [1] was over 32 µg/mL. As for `COc1cccc(-c2cc(-c3ccc(C(=O)O)cc3)c(C#N)c(=O)[nH]2)c1`, on Thymidylate kinase, the IC50 was 420 nM. The same measure, in the same setting: under `CSc1cc(-c2ccccn2)[nH]c(=O)c1C#N` stands 18000 nM; under `COc1cccc(-c2cc(-c3ccc(NC(C)=O)cc3)c(C#N)c(=O)[nH]2)c1`, 430 nM; under `CC(C)c1ccc(COc2cccc(-c3cc(-c4ccc(C(=O)O)cc4)c(C#N)c(=O)[nH]3)c2)cc1`, 6 nM. Still for that read-out and setting: under `COc1cccc(-c2nc(SC)c(C#N)c(=O)[nH]2)c1` stands 8000 nM; under `COc1cccc(-c2cc(-c3ccc(C(=O)O)cc3)c(C)c(=O)[nH]2)c1`, 1200 nM. In turn, `COc1cccc2c1CCc1c-2[nH]c(=O)c(C#N)c1-c1ccc(C(=O)O)cc1` displayed a pKa in series [2] of 4.4. Also, on Thymidylate kinase, the IC50 was 5 nM. The MIC in series [1] is over 32 µg/mL. Take `COc1cccc(-c2cc(-c3ccc(N)cc3)c(C#N)c(=O)[nH]2)c1`: the IC50 on Thymidylate kinase amounted to 1010 nM. As to `C[S+]([O-])c1cc(-c2cccs2)[nH]c(=O)c1C#N` (stereo not given), on Thymidylate kinase, half-maximal inhibition (IC50) was put at 820 nM. For the same molecule, the MIC in series [1] is 12 µg/mL (≈ 45.4 µM). Turning to `CC(C)c1ccc(COc2cccc(-c3cc([S+](C)[O-])c(C#N)c(=O)[nH]3)c2)cc1` (stereo not given), the IC50 at Thymidylate kinase was 32 nM. Further, the minimal inhibitory concentration (MIC) in series [1] turned out to be 2 µg/mL (≈ 4.92 µM).

In the case of `CSc1cc(-c2ccccc2)nc(O)c1C#N`, the IC50 on Thymidylate kinase came to 1900 nM. Same read-out and setting: under `CSc1cc(-c2cccc(Cl)c2)[nH]c(=O)c1C(N)=O` stands 14300 nM. The molecule `CS(=O)(=O)c1cc(-c2cccc(OCc3cccc(Cl)c3)c2)[nH]c(=O)c1C#N` returned an IC50 at Thymidylate kinase of 22 nM. Besides, the MIC in series [1] is 4 µg/mL (≈ 9.64 µM).

In turn, `CC(C)CCOc1cccc(-c2cc([S+](C)[O-])c(C#N)c(=O)[nH]2)c1` (stereo not given) gave a half-inhibitory concentration (IC50) against Thymidylate kinase of 330 nM. The MIC in series [1] came to 4 µg/mL (≈ 11.6 µM). `CSc1cc(-c2cccs2)oc(=O)c1C#N` came in with an IC50 on Thymidylate kinase of over 50000 nM. Turning to `CCCc1cc2[nH]c(=O)c(C#N)c(-c3ccccc3)c2c(C)n1`, the 50% inhibitory concentration (IC50) on Thymidylate kinase came to 1000 nM. Moreover, in series [1], the MIC was over 32 µg/mL. As to `Cc1nccc2nc(O)c(C#N)cc12`, on Thymidylate kinase, the half-maximal inhibitory concentration (IC50) was 634000 nM.

On Thymidylate kinase, `CSc1cc(-c2cccs2)[nH]c(=O)c1C#N` registered an IC50 of 3600 nM. For the molecule `C[S+]([O-])c1cc(-c2cccc(OC(F)(F)F)c2)[nH]c(=O)c1C#N` (stereo not given), the result (in series [3]; in the series with Staphylococcus aureus; with Haemophilus influenzae; in the series with Escherichia coli) was inactive. This molecule had a 50% inhibitory concentration (IC50) at Thymidylate kinase of 240 nM. For the same molecule, the minimum inhibitory concentration (MIC) in series [1] was 8 µg/mL (≈ 23.4 µM).

For `CCNC(=O)Nc1ccc(-c2cc(-c3cccc(OC)c3)[nH]c(=O)c2C#N)cc1`, in series [3], the outcome was inactive. Besides, 250 nM corresponded to half-maximal inhibition at Thymidylate kinase (IC50). In turn, `CC(C)c1ccc(COc2cccc3c2CCc2c-3[nH]c(=O)c(C#N)c2-c2ccc(C(=O)O)cc2)cc1` had a pKa in series [2] of 4.4. Also, 1 nM corresponded to half-maximal inhibition against Thymidylate kinase (IC50). Besides, the MIC in series [1] was over 32 µg/mL.

`COc1ccc(-c2cc(SC)c(C#N)c(=O)[nH]2)cc1`: at Thymidylate kinase, half-maximal inhibition (IC50) required 7700 nM.
